According to PMC11066877, “Development and Characterization of Novel FAP-Targeted Theranostic Pairs: A Bench-to-Bedside Study” (Research, 2023):

Key:
Type in all cases: in vivo, mice
[1] = microPET/CT imaging, ROI analysis, BxPC-3 tumor models; details: nude (thymus-free), mouse, intravenous, 3 MBq, 4 h p.i.
Protocol: (§1) A human pancreatic cancer cell line BxPC-3 and a murine pancreatic cancer cell Panc-02 were obtained from the American Type Culture Collection. The pancreatic cancer cell line T3M-4 was purchased by MeisenCTCC (Zhejiang, China). BxPC-3 and T3M-4 cell lines were grown in RPMI 1640 medium (Shanghai BasalMedia Technologies Co., LTD.) containing 10% FBS (GE Healthcare, Chicago, IL, USA) and 1% penicillin–streptomycin solution (Invitrogen). To culture the Panc-02 cell line, a medium called Dulbecco’s modified Eagle medium from Shanghai BasalMedia Technologies Co., LTD. was used, which consisted of 10% FBS. The cell line HT-1080 was grown in MEM medium (Shanghai BasalMedia Technologies Co., LTD.) supplemented with 10% FBS, 1% penicillin-streptomycin solution, and 1% nonessential amino acids (NEAA-11140050; Gibco). A human fibrosarcoma cell line was stably transfected with FAP (HT1080-FAP) and cultured, as we previously described. All cell lines were cultured in a humid incubator with 5% CO2 at a temperature of 37 °C. Approval was granted by the Institutional Animal Care and Use Committee (Renji Hospital, School of Medicine, Shanghai Jiao Tong University) for all experimental protocols and procedures related to animal care. Panc-02 cells were implanted by subcutaneous injection of 5 × 10^6 tumor cells suspended in 100 μl PBS and matrigel matrix (Corning) with equal volume into the upper limb flank of C57BL/6 mice (Shanghai Sheng Chang Biotechnology Co., Ltd.). Four- to 6-week-old thymus-free nude mice (GemPharmatech) were subcutaneously inoculated with BxPC-3, T3M-4, HT-1080, and HT1080-FAP cells (5 × 10^6 in 100 μl of PBS mixing with 100 μl matrigel matrix) in the right shoulder. […]
(§2) MicroPET imaging was performed on isoflurane-anesthetized mice injected intravenously via the lateral tail vein with around 3 MBq (2.5 nmol) of the radioligand at certain times. […] The information was analyzed using OsiriX Lite software (Pixmeo SARL) and Inveon Research Workplace (Siemens Preclinical Solutions). […]

[2] = microPET/CT imaging, ROI analysis, Panc-02 tumor models; details: C57BL/6, mouse, intravenous, 3 MBq, 4 h p.i.
Protocol: as §1, §2

[3] = microPET/CT imaging, ROI analysis, HT-1080 tumor models; details: nude (thymus-free), mouse, intravenous, 3 MBq, 4 h p.i.
Protocol: as §1, §2

[4] = microPET/CT imaging, ROI analysis, HT1080-FAP tumor models; details: nude (thymus-free), mouse, intravenous, 3 MBq, HT1080-FAP tumor
Protocol: (§3) A human pancreatic cancer cell line BxPC-3 and a murine pancreatic cancer cell Panc-02 were obtained from the American Type Culture Collection. The pancreatic cancer cell line T3M-4 was purchased by MeisenCTCC (Zhejiang, China). BxPC-3 and T3M-4 cell lines were grown in RPMI 1640 medium (Shanghai BasalMedia Technologies Co., LTD.) containing 10% FBS (GE Healthcare, Chicago, IL, USA) and 1% penicillin–streptomycin solution (Invitrogen). To culture the Panc-02 cell line, a medium called Dulbecco’s modified Eagle medium from Shanghai BasalMedia Technologies Co., LTD. was used, which consisted of 10% FBS. The cell line HT-1080 was grown in MEM medium (Shanghai BasalMedia Technologies Co., LTD.) supplemented with 10% FBS, 1% penicillin-streptomycin solution, and 1% nonessential amino acids (NEAA-11140050; Gibco). A human fibrosarcoma cell line was stably transfected with FAP (HT1080-FAP) and cultured, as we previously described. All cell lines were cultured in a humid incubator with 5% CO2 at a temperature of 37 °C. Approval was granted by the Institutional Animal Care and Use Committee (Renji Hospital, School of Medicine, Shanghai Jiao Tong University) for all experimental protocols and procedures related to animal care. Panc-02 cells were implanted by subcutaneous injection of 5 × 10^6 tumor cells suspended in 100 μl PBS and matrigel matrix (Corning) with equal volume into the upper limb flank of C57BL/6 mice (Shanghai Sheng Chang Biotechnology Co., Ltd.). Four- to 6-week-old thymus-free nude mice (GemPharmatech) were subcutaneously inoculated with BxPC-3, T3M-4, HT-1080, and HT1080-FAP cells (5 × 10^6 in 100 μl of PBS mixing with 100 μl matrigel matrix) in the right shoulder. Follow-up microPET/CT imaging and ex vivo biodistribution experiments were performed when the tumor diameter reached 8 to 9 mm.
MicroPET imaging was performed on isoflurane-anesthetized mice injected intravenously via the lateral tail vein with around 3 MBq (2.5 nmol) of the radioligand at certain times. Regarding the FD1 blocking group, an excessive amount of unlabeled FD1 (200-fold) was simultaneously injected with [^68Ga]Ga-DOTA-FD1 into the tail vein of another batch of mice. Images were acquired using an IRIS PET/CT system (Inviscan Imaging Systems). PET data were reconstructed using a nonscatter-corrected 3D-ordered subset expectation […]/maximum a posteriori (OSEM3D/MAP) algorithm. The information was analyzed using OsiriX Lite software (Pixmeo SARL) and Inveon Research Workplace (Siemens Preclinical Solutions). The percentage of injected dose per gram of tissue (%ID/g, mean ± SD) was utilized to present the distribution of tracers in the ROI, encompassing tumor, heart, lung, liver, kidney, and muscle.

[5] = Ex vivo biodistribution after imaging, HT-1080 tumor models; details: nude (thymus-free), mouse, intravenous, 3 MBq, total radioactivity, 4.5 h p.i.
Protocol: A human pancreatic cancer cell line BxPC-3 and a murine pancreatic cancer cell Panc-02 were obtained from the American Type Culture Collection. The pancreatic cancer cell line T3M-4 was purchased by MeisenCTCC (Zhejiang, China). BxPC-3 and T3M-4 cell lines were grown in RPMI 1640 medium (Shanghai BasalMedia Technologies Co., LTD.) containing 10% FBS (GE Healthcare, Chicago, IL, USA) and 1% penicillin–streptomycin solution (Invitrogen). To culture the Panc-02 cell line, a medium called Dulbecco’s modified Eagle medium from Shanghai BasalMedia Technologies Co., LTD. was used, which consisted of 10% FBS. The cell line HT-1080 was grown in MEM medium (Shanghai BasalMedia Technologies Co., LTD.) supplemented with 10% FBS, 1% penicillin-streptomycin solution, and 1% nonessential amino acids (NEAA-11140050; Gibco). […]
After imaging collection and image reconstruction, samples from euthanized experimental mice, including blood and multiple significant organs, were harvested and weighed. The radioactivity in each collected tissue was counted using an automated gamma counter (Wizard 2480, PerkinElmer) and the accumulation of radioactivity in different tissues and organs was quantified and expressed as %ID/g (mean ± SD). […] At the end of each probe imaging and radioactivity counting study, tumor tissues were fixed in paraformaldehyde tissue fixative. […]

[6] = Ex vivo biodistribution after imaging, HT1080-FAP tumor models; details: nude (thymus-free), mouse, intravenous, 3 MBq, total radioactivity; HT1080-FAP tumor, 4.5 h p.i.
Protocol: as §3
After imaging collection and image reconstruction, samples from euthanized experimental mice, including blood and multiple significant organs, were harvested and weighed. The radioactivity in each collected tissue was counted using an automated gamma counter (Wizard 2480, PerkinElmer) and the accumulation of radioactivity in different tissues and organs was quantified and expressed as %ID/g (mean ± SD). [^177Lu]Lu-DOTA-FD1 (~1.11 MBq, n = 3), [^177Lu]Lu-DOTA-FD2 (~1.11 MBq, n = 3), and [^177Lu]Lu-DOTA-FD3 (~1.11 MBq, n = 3) were injected into the tail vein of free nude mice at 6 h, 24 h, and 24 h for ex vivo biodistribution to verify the circulation time of the 3 probes in vivo. Biodistribution data from tumor-bearing mice injected with [^177Lu]Lu-DOTA-FD3 at 45 h (~1.11 MBq, n = 4) and 90 h (~1.11 MBq, n = 3) validated the prolonged enrichment of the probe at the tumor site. At the end of each probe imaging and radioactivity counting study, tumor tissues were fixed in paraformaldehyde tissue fixative. Briefly, sections of 10 μm were cut and stained for H&E following the standard protocols. IHC staining with a FAP antibody (ab227703, Abcam) was performed only on tumor tissues following accepted techniques.

SMILES: CCCCCC(=O)N[C@H]1CSCc2cc(CSCCNC(=O)[C@H](CCCCNC(=O)CCCc3ccc(I)cc3)NC(=O)CN3CCN(CC(=O)O)CCN(CC(=O)O)CCN(CC(=O)O)CC3)cc(c2)CSC[C@@H](C(=O)O)NC(=O)[C@H](Cc2ccccc2)NC(=O)[C@H](CCC(N)=O)NC(=O)[C@H]([C@@H](C)O)NC(=O)[C@@H]2CCCN2C(=O)[C@@H]2CCCN2C1=O [[^68Ga]Ga-DOTA-FD2, metal not drawn]
- tissue uptake at 4 h [1]: 7.67 ± 0.38 %ID/g
- tissue uptake at 4 h [2]: 6.9 ± 0.51 %ID/g
- tissue uptake at 4 h [3]: 8.1 ± 0.52 %ID/g
- tissue uptake at 0.5 h ([4]; 30 min): 6.63 ± 0.64 %ID/g
- tissue uptake at 2 h ([4]; 2 h): 8.23 ± 2.61 %ID/g
- tissue uptake at 4 h ([4]; 4 h): 9.37 ± 0.61 %ID/g
- tissue uptake at 4.5 h [5]: 10.4 ± 1.84 %ID/g
- tissue uptake at 4.5 h [6]: 11.9 ± 1.83 %ID/g
